Assay results reported in article PMC10056008 (Pharmaceuticals, 2023).
Like-named read-outs stand apart in the source and are kept apart here.

Legend:
thrombin generation = experiment: Thrombin generation assay (TGA) in plasma of dosed subjects; assay type: in vivo, human
Protocol: An open-label, two-period, single sequence clinical study was conducted. After an overnight fast and drinking 200 mL of water one hour before drug administration, eligible subjects were administered with a capsule of dabigatran etexilate 150 mg ([…]®) on the first day of the study. Blood samples for pharmacokinetic and pharmacodynamic analyses were obtained using EDTA tubes and citrate tubes, respectively. […] Subjects remained at fasting stage until 4 h after the administration. […] To ensure compliance, subjects visited the study site for every drug administration. […] Blood samples were obtained at the same time point scheduled as the first day of the study. Adverse events were collected during the entire study period. This study was conducted in accordance with the Declaration of Helsinki, good clinical practice, and local regulation. […] TGA was performed using a Technothrombin® TGA kit (Technoclone, Vienna, Austria) on a fully automated, computer-controlled microplate reader (Flexstation 3; Molecular Devices, San Jose, CA, USA) with a 360 nm excitation wavelength and 460 nm emission wavelength. In brief, 30 μL of plasma samples were mixed with 25 μL of 400 μmol/L fluorogenic substrate ([…]; Bachem, Bubendorf, Switzerland). The assay was initiated by dispensing 10 μL of 5 pmol/L recombinant human tissue factor lipidated with synthetic phospholipids and 10 μL of 15 mmol/L CaCl2. TGA results are expressed as Cmax, AUC, Tmax, and lag time. For pharmacodynamic assessment, Phoenix Winnonlin® version 8.3 (Pharsight, Mountain View, CA, USA) was used to calculate AUEC with the linear trapezoidal method and Rmax was directly determined from individual profiles.

coagulation = experiment: Coagulation assay (aPTT, PT, dPT, TT, fibrinogen) in plasma of dosed subjects; assay type: in vivo, human
Protocol: An open-label, two-period, single sequence clinical study was conducted. After an overnight fast and drinking 200 mL of water one hour before drug administration, eligible subjects were administered with a capsule of dabigatran etexilate 150 mg ([…]®) on the first day of the study. Blood samples for pharmacokinetic and pharmacodynamic analyses were obtained using EDTA tubes and citrate tubes, respectively. […] Subjects remained at fasting stage until 4 h after the administration. […] To ensure compliance, subjects visited the study site for every drug administration. […] Blood samples were obtained at the same time point scheduled as the first day of the study. Adverse events were collected during the entire study period. This study was conducted in accordance with the Declaration of Helsinki, good clinical practice, and local regulation. The study was approved by the Institutional Review Board at Korea University Guro Hospital (2018GR0336, date of approval: 11 October 2018) and registered at ClinicalTrials.gov (NCT03728101). Anticoagulant assays of aPTT, PT, dPT, TT, and fibrinogen were measured using STA® Compact Max (Stago, Asnieres, France) according to the manufacturer's instructions. […] To measure aPTT, 50 μL of plasma sample was placed in a cuvette in the presence of STA®-PTT (50 μL) and 50 μL of 0.025 M CaCl2. For fibrinogen, 7.5 μL of plasma which was automatically diluted with Owren-Koller buffer was placed into a cuvette and then 50 μL of […] was added. For pharmacodynamic assessment, Phoenix Winnonlin® version 8.3 (Pharsight, Mountain View, CA, USA) was used to calculate AUEC with the linear trapezoidal method and Rmax was directly determined from individual profiles.

recombinant CES1A1 = conditions: cited from earlier work
CES1 = conditions: in vitro; cited from earlier work
[1] = cited from earlier work
[2] = before dabigatran etexilate administration, period with simvastatin 40 mg once daily, mean (SD)
[3] = before vs after once daily simvastatin for 7 days

SMILES | Thrombin Generation Assay AUC (endogenous thrombin potential), baseline (thrombin generation; [2]) | Thrombin Generation Assay Tmax, baseline (thrombin generation; [2]) | Thrombin Generation Assay lag time, baseline (thrombin generation; [2]) | anticoagulant effect of simvastatin without dabigatran, thrombin generation (thrombin generation; [3]) | Fibrinogen, baseline (coagulation; [2]) | PT (INR), baseline (coagulation; [2]) | PT, baseline (coagulation; [2]) | TT, baseline (coagulation; [2]) | aPTT, baseline (coagulation; [2]) | dPT, baseline (coagulation; [2]) | anticoagulant effect of simvastatin without dabigatran, coagulation assays (coagulation; [3]) | effect on imidapril hydrolase activity (recombinant CES1A1) | effect on CES1-mediated hydrolysis of clopidogrel (CES1) | elimination half-life [1] | Time to reach Cmax (Tmax) ([1]; human, in vivo) [h] | elimination half-life ([1]; human, in vivo) [h]
CCC(C)(C)C(=O)O[C@H]1C[C@@H](C)C=C2C=C[C@H](C)[C@H](CC[C@@H]3C[C@@H](O)CC(=O)O3)[C@H]21 [Simvastatin] | 4073.1 (642.2) nM∙min | 7.3 (0.8) min | 3.5 (0.5) min | no significant difference | 259.3 (39.4) mg/dL | 1.0 (0.1) INR | 13.7 (0.6) s | 16.2 (0.9) s | 40.4 (3.3) s | 43.2 (1.8) s | no significant difference | inhibitory effects | can inhibit | about 2.8 h | – | –
CCC(C)(C)C(=O)O[C@H]1C[C@@H](C)C=C2C=C[C@H](C)[C@H](CC[C@@H](O)C[C@@H](O)CC(=O)O)[C@H]21 [simvastatin acid] | – | – | – | – | – | – | – | – | – | – | – | – | – | – | ~4.2 | ~4.4
